Data on 13 compounds can be found in publication PMC8838847, “Design, Synthesis and Cytotoxicity of Thiazole-Based Stilbene Analogs as Novel DNA Topoisomerase IB Inhibitors” (Molecules, 2022).

A word on the melting point: it is the temperature, or range, at which the solid turns liquid. The term IC50 denotes the concentration that gives 50% inhibition. Higher therefore signals weaker potency.

Series [1] relates to human breast cancer (MCF-7) cells. Put plainly: MTT cytotoxicity assay, MCF-7. The note with it: five doses 0.01-100 µM. Type of series: cell-based. Here is the method:
(§1) The cytotoxicity of the desired compounds was assessed through MTT assay against two human cancer cell lines, human breast cancer (MCF-7) and colon cancer (HCT116), and one normal cell line, human embryonic kidney 293T (HEK293T). CPT and etoposide (VP-16) were used as positive controls. The compounds were incubated with cells for 72 h in a five-dose assay ranging from 0.01 to 100 µΜ. After the drug treatments, MTT solution was added to test the percentage growth of tumor cells.
(§2) The cells were cultured on RPMI 1640 Medium at 37 °C in a humidified atmosphere with 5% CO2. The cytotoxicities of the target compounds were evaluated through MTT assay against two human cancer cell lines (human breast cancer MCF-7 and human colon cancer HCT116). For the compound treatment experiments, the cancer cells were treated with the compounds (pre-dissolved in DMSO) via a five-dose assay ranging from 10^−8 to 10^−4 M. After incubation for 72 h at 37 °C, MTT solution (20 μL, 2.5 mg/mL) in PBS (PBS without MTT as the blank) was added to each well of the culture plate. After incubation for 4 h, the formazan crystal formed in the well was dissolved in 100 μL of DMSO for an optical density of 570 nm. The IC50 value was calculated using nonlinear regression analysis (GraphPad Prism). Every experiment was conducted three times, independently.
In general terms: Tetrazolium assays rely on reduction of a dye to a coloured formazan, in cell work by metabolically active cells.

Another series has as its target T1, calf thymus Top1 (Bos taurus, UniProt F1MN93).
T1 construct: 1 unit of calf thymus Top1; from tissue; host or cells: calf thymus
T1 sequence (F1MN93 1-767): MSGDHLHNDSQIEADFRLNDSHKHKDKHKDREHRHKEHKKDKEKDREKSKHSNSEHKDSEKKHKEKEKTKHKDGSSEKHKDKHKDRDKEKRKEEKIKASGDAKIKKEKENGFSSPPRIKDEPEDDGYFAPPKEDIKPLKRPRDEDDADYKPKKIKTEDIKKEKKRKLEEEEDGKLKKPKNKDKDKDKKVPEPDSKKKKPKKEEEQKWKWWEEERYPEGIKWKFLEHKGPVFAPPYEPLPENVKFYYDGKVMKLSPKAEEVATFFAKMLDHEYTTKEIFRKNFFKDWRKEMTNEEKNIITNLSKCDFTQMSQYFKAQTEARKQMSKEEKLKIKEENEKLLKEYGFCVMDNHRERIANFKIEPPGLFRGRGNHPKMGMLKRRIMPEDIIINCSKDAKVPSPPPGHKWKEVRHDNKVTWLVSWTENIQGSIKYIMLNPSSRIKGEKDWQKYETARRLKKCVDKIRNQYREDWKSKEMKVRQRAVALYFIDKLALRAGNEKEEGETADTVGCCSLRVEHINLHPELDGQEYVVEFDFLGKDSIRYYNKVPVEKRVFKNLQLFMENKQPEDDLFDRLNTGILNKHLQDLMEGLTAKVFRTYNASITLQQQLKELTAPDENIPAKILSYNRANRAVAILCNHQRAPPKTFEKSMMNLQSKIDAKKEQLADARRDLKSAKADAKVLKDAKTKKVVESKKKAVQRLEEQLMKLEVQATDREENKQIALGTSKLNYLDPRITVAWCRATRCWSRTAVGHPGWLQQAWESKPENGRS
Put plainly: Top1-mediated DNA relaxation assay. In kind it is biochemical. The note with it: for Relaxation Assay (Top1 inhibitory activity): compounds at 50 µM, semi-quantitative, relative to CPT at 50 µM; for supercoiled DNA remaining: compound at 125 μM. As for the experimental part: The synthesized compounds 6–37 were evaluated for Top1 inhibitory activity by measurement of the Top1-mediated DNA relaxation assay. The compounds were tested at 50 µΜ using CPT as positive control, and the results were semi-quantitatively expressed relative to CPT at 50 µΜ as follows: ++++, more than 80% activity; +++, between 40% and 79% activity; ++, between 10% and 39% activity; +, less than 10% activity. […] In phenyl A, the 4-position halogen (X) remarkably affected the inhibition against Top1. […] In phenyl B, the introduction of substituents at the 3-position was beneficial for the Top1 inhibition, and the derivatives presented good tolerance of the 3-substituents, since compounds 8 (++++) and 13 (+++) with electron-donating -Me or -OMe and also compound 19 (+++) with electron-withdrawing -Br had good inhibition against Top1. For substituents at the 4-position, the strong electron-withdrawing -CF3 (10, +++) and -F (15, +++) increased the Top1 inhibitory activity compared to compound 6 (R = H), while the weak electron-withdrawing -Cl (17, +) and the electron-donating -Me (9, +) and -OMe (14, +) decreased the activity, with the exception of tert-Bu (11, +++).
As previously mentioned, compound 8 had the best inhibition activity against Top1, and therefore was selected for further investigation. A semi-quantitative Top1-mediated relaxation assay of compound 8 was performed at concentrations of 0.2, 1, 5, 25 and 125 μM.
The compounds were tested for their Top1 inhibitory activity using a Top1-mediated relaxation assay. Briefly, the reaction mixture (20 μL) with 0.5 μg of supercoiled pBR322 DNA in relaxation buffer (10 mM Tris-HCl, pH 7.5, 50 mM KCl, 5 mM MgCl2, 15 μg/mL BSA, 40 μg/mL DTT) was incubated with 1 unit of calf thymus Top1 in the absence or in the presence of the compound for 30 min at 37 °C. Then, the reaction solution was added with 6 × loading buffer (4 μL) and was analyzed using a 0.8% agarose gel in TBE buffer at 4.6 V/cm for 1.5 h. Gel was stained with 1 × GelRed for 30 min and subsequently visualized with a UV transilluminator.

The test system of series [2] is human colon cancer (HCT116) cells. Put plainly: MTT cytotoxicity assay, HCT116. In kind it is cell-based. The note with it: five doses 0.01-100 µM. Here is the method: as §1, §2
A short description of series [3]: MTT cytotoxicity assay, HEK293T normal cells. In kind it is cell-based, human. Particulars: human, HEK293T cells (normal cell line). As for the experimental part:
as §1, §2

Series [4] has as its system human embryonic kidney 293T (HEK293T) cells. Kind of series: MTT cytotoxicity assay, HEK293T normal cells. Type of series: cell-based. The note with it: 72 h, normal cell line. As for the experimental part: as §1, §2
The mark [5] stands for this setting: semi-quantitative relaxation assay (Figure 3).

For `COc1ccc(/C=C/c2nc(-c3ccc(Br)cc3)cs2)cc1` [Compound 32, (E)-4-(4-bromophenyl)-2-(4-methoxystyryl)thiazole], the melting point was in the range of 189 to 191 °C. Further, the IC50 in series [1] (Homo sapiens, MCF7, 72 h) is more than 100 µM. In addition, on calf thymus Top1, the “Relaxation Assay (Top1 inhibitory activity)” value is listed as “+ (less than 10% activity)”. Besides, the IC50 in series [2] (Homo sapiens, HCT-116, 72 h) is more than 100 µM.

For the compound `CC(C)=CCOc1ccc(/C=C/c2nc(-c3ccc(Br)cc3)cs2)cc1` [Compound 37, (E)-4-(4-bromophenyl)-2-(4-((3-methylbut-2-en-1-yl)oxy)styryl)thiazole], the melting point lay in the range of 134 to 135 °C. Moreover, the IC50 in series [1] (Homo sapiens, MCF7, 72 h) is more than 100 µM. In addition, the “Relaxation Assay (Top1 inhibitory activity)” value at calf thymus Top1 was “+ (less than 10% activity)”. The same compound came in with an IC50 in series [2] (Homo sapiens, HCT-116, 72 h) of more than 100 µM.

`CC(C)(C)c1ccc(/C=C/c2nc(-c3ccc(F)cc3)cs2)cc1` [Compound 11, (E)-2-(4-tert-butylstyryl)-4-(4-fluorophenyl)thiazole] returned a melting point of 146 to 148 °C. The IC50 at 72 h in series [3] was more than 10 µM. In series [4], inhibition was half-maximal at 12 ± 2.45 µM (IC50). Moreover, the half-inhibitory concentration (IC50) in series [1] (72 h) was determined as 6.31 ± 0.51 µM. Besides, in series [1] (Homo sapiens, MCF7, 72 h), the concentration for half-maximal inhibition (IC50) is less than 10 µM.

Compound `Fc1ccc(-c2csc(/C=C/c3ccc(Cl)cc3)n2)cc1` [Compound 17, (E)-2-(4-chlorostyryl)-4-(4-fluorophenyl)thiazole] came in with a melting point of 171 to 173 °C. In addition, in series [1] (Homo sapiens, MCF7, 72 h), it took 43.3 ± 1.42 µM to reach half-maximal inhibition (IC50). Besides, the “Relaxation Assay (Top1 inhibitory activity)” value at calf thymus Top1 is recorded as “+ (less than 10% activity)”. Besides, in series [2] (Homo sapiens, HCT-116, 72 h), it took 27.1 ± 0.41 µM to reach half-maximal inhibition (IC50).

Take `Cc1cccc(/C=C/c2nc(-c3ccc(F)cc3)cs2)c1` [Compound 8, (E)-2-(3-methylstyryl)-4-(4-fluorophenyl)thiazole]: the melting point is 148 to 149 °C. Besides, in series [3], the IC50 at 72 h is more than 10 µM. Further, in series [4], the IC50 was 10.2 ± 0.68 µM. The “Top1 inhibition compared with CPT” value at calf thymus Top1 (compound at 25 μM, semi-quantitative relaxation assay (Figure 3)) is “equipotent Top1 inhibition with CPT”. The “supercoiled DNA remaining” value on calf thymus Top1 (setting [5]) is recorded as 75%.

`Clc1ccc(-c2csc(/C=C/c3ccccc3Cl)n2)cc1` [Compound 25, (E)-4-(4-chlorophenyl)-2-(2-chlorostyryl)thiazole] had a melting point of 109 to 110 °C. In series [1] (Homo sapiens, MCF7, 72 h), this compound gave a half-inhibitory concentration (IC50) of 48.5 ± 6.67 µM. In addition, at calf thymus Top1, the “Relaxation Assay (Top1 inhibitory activity)” value was “+ (less than 10% activity)”. The compound further showed an IC50 in series [2] (Homo sapiens, HCT-116, 72 h) of 51 ± 3.7 µM.

In turn, `Cc1ccc(/C=C/c2nc(-c3ccc(F)cc3)cs2)cc1` [Compound 9, (E)-2-(4-methylstyryl)-4-(4-fluorophenyl)thiazole] had a melting point of 164 to 166 °C. Also, 65.5 ± 3.11 µM corresponded to half-maximal inhibition in series [1] (Homo sapiens, MCF7, 72 h) (IC50). Moreover, the “Relaxation Assay (Top1 inhibitory activity)” value at calf thymus Top1 is “+ (less than 10% activity)”. Moreover, the IC50 in series [2] (Homo sapiens, HCT-116, 72 h) was found to be 21.9 ± 4.29 µM.

Take `CC[C@@]1(O)C(=O)OCc2c1cc1n(c2=O)Cc2cc3ccccc3nc2-1` [CPT, camptothecin, reference compound]: in series [3], half-maximal inhibition (IC50 at 72 h) was put at 0.1 ± 0.003 µM. The IC50 in series [1] (Homo sapiens, MCF7, 72 h) came to 0.34 ± 0.026 µM; in series [2] (Homo sapiens, HCT-116, 72 h), 0.012 ± 0.001 µM. For the same compound, the “supercoiled DNA remaining” value on calf thymus Top1 (setting [5]) worked out at 58%.

As to `CC(C)(C)c1ccc(/C=C/c2nc(-c3ccc(Cl)cc3)cs2)cc1` [Compound 23, (E)-4-(4-chlorophenyl)-2-(4-(tert-butyl)styryl)thiazole], the melting point lay in the range of 74 to 75 °C. This compound also gave an IC50 at 72 h in series [3] of more than 10 µM. In series [4], this compound had an IC50 of 18.7 ± 1.37 µM. The IC50 in series [1] (72 h) was determined as 7.22 ± 0.4 µM. The IC50 in series [1] (Homo sapiens, MCF7, 72 h) is less than 10 µM. The “Relaxation Assay (Top1 inhibitory activity)” value on calf thymus Top1 is given as “+ (less than 10% activity)”. Also, the IC50 in series [2] (72 h) was 2.87 ± 0.26 µM. The IC50 in series [2] (Homo sapiens, HCT-116, 72 h) is less than 5 µM.

Compound `Oc1ccccc1/C=C/c1nc(-c2ccc(Br)cc2)cs1` [Compound 33, (E)-2-(2-(4-(4-bromophenyl)thiazol-2-yl)vinyl)phenol] came in with a melting point of 226 to 228 °C. The compound further returned a concentration for half-maximal inhibition (IC50) in series [1] (Homo sapiens, MCF7, 72 h) of 39.2 ± 1.79 µM. Further, the “Relaxation Assay (Top1 inhibitory activity)” value on calf thymus Top1 is on record as “+ (less than 10% activity)”. Also, in series [2] (72 h), the IC50 was 4.15 ± 0.76 µM. The IC50 in series [2] (Homo sapiens, HCT-116, 72 h) is less than 5 µM.

In turn, `COc1ccccc1/C=C/c1nc(-c2ccc(Br)cc2)cs1` [Compound 30, (E)-4-(4-bromophenyl)-2-(2-methoxystyryl)thiazole] returned a melting point of 110 to 112 °C. This compound came in with an IC50 in series [1] (Homo sapiens, MCF7, 72 h) of more than 100 µM. Moreover, on calf thymus Top1, the “Relaxation Assay (Top1 inhibitory activity)” value is recorded as “+ (less than 10% activity)”. Moreover, in series [2] (Homo sapiens, HCT-116, 72 h), the IC50 is more than 100 µM.

As to `Fc1ccc(-c2csc(/C=C/c3ccc(Cl)cc3Cl)n2)cc1` [Compound 20, (E)-2-(2,4-Dichlorostyryl)-4-(4-fluorophenyl)thiazole], the melting point lay in the range of 131 to 133 °C. This compound registered an IC50 in series [1] (Homo sapiens, MCF7, 72 h) of 72.4 ± 2.15 µM. Besides, the “Relaxation Assay (Top1 inhibitory activity)” value on calf thymus Top1 is reported as “+ (less than 10% activity)”. In addition, in series [2] (Homo sapiens, HCT-116, 72 h), the half-maximal inhibitory concentration (IC50) worked out at 54.8 ± 0.73 µM.

The compound `Cc1ccccc1/C=C/c1nc(-c2ccc(Cl)cc2)cs1` [Compound 21, (E)-4-(4-chlorophenyl)-2-(2-methylstyryl)thiazole] came in with a melting point of 83 to 84 °C. The compound also had an IC50 in series [1] (Homo sapiens, MCF7, 72 h) of 39.5 ± 1.06 µM. Further, on calf thymus Top1, the “Relaxation Assay (Top1 inhibitory activity)” value is “+ (less than 10% activity)”. In addition, in series [2] (Homo sapiens, HCT-116, 72 h), 41.7 ± 1.92 µM corresponded to half-maximal inhibition (IC50).
